Assay results as given in the NIST ThermoML archive (doi:10.1021/je060271a).
± gives the expanded uncertainty stated by the source.

Conditions: 283.15 K, Liquid, Vibrating tube method

Work on `CCCCCC(=O)OCC(COC(=O)CCCCC)(COC(=O)CCCCC)COC(=O)CCCCC` [pentaerythritol tetrahexanoate] yielded a mass density (383.6 kPa) of 1004.5 ± 1.2 kg/m3, a mass density (385.7 kPa) of 1004.2 ± 1.2 kg/m3 and a mass density (387.9 kPa) of 1004.3 ± 1.2 kg/m3. For the same compound, the mass density (390 kPa) was 1004.4 ± 1.2 kg/m3, the mass density (391.9 kPa) was 1004.3 ± 1.2 kg/m3 and the mass density (394 kPa) was 1004.4 ± 1.2 kg/m3. The mass density (396.6 kPa) was 1004.3 ± 1.2 kg/m3, the mass density (398.4 kPa) was 1004.4 ± 1.2 kg/m3 and the mass density (401 kPa) was 1004.4 ± 1.2 kg/m3. The mass density (413.1 kPa) was 1004.4 ± 1.2 kg/m3, the mass density (415.2 kPa) was 1004.3 ± 1.2 kg/m3 and the mass density (417.8 kPa) was 1004.3 ± 1.2 kg/m3. For the same compound, the mass density (420.6 kPa) was 1004.3 ± 1.2 kg/m3, the mass density (423.2 kPa) was 1004.4 ± 1.2 kg/m3 and the mass density (425.6 kPa) was 1004.3 ± 1.2 kg/m3. For the same compound, the mass density (428.4 kPa) was 1004.4 ± 1.2 kg/m3, the mass density (430.9 kPa) was 1004.5 ± 1.2 kg/m3 and the mass density (434 kPa) was 1004.4 ± 1.2 kg/m3. It also gave a mass density (436.2 kPa) of 1004.5 ± 1.2 kg/m3, a mass density (442.3 kPa) of 1004.4 ± 1.2 kg/m3 and a mass density (444.9 kPa) of 1004.4 ± 1.2 kg/m3. For the same compound, the mass density (448.1 kPa) was 1004.4 ± 1.2 kg/m3, the mass density (450.8 kPa) was 1004.4 ± 1.2 kg/m3 and the mass density (453.4 kPa) was 1004.4 ± 1.2 kg/m3. It also gave a mass density (456.8 kPa) of 1004.4 ± 1.2 kg/m3, a mass density (459.7 kPa) of 1004.4 ± 1.2 kg/m3 and a mass density (462.7 kPa) of 1004.4 ± 1.2 kg/m3. For the same compound, the mass density (466 kPa) was 1004.4 ± 1.2 kg/m3, the mass density (469.4 kPa) was 1004.4 ± 1.2 kg/m3 and the mass density (472.6 kPa) was 1004.4 ± 1.2 kg/m3. It also gave a mass density (476 kPa) of 1004.3 ± 1.2 kg/m3, a mass density (479.5 kPa) of 1004.3 ± 1.2 kg/m3 and a mass density (482.8 kPa) of 1004.4 ± 1.4 kg/m3. For the same compound, the mass density (486 kPa) was 1004.4 ± 1.2 kg/m3, the mass density (489.8 kPa) was 1004.3 ± 1.2 kg/m3 and the mass density (493.6 kPa) was 1004.3 ± 1.2 kg/m3. For the same compound, the mass density (496.7 kPa) was 1004.5 ± 1.2 kg/m3, the mass density (512 kPa) was 1004.5 ± 1.2 kg/m3 and the mass density (515.7 kPa) was 1004.4 ± 1.2 kg/m3. For the same compound, the mass density (519.1 kPa) was 1004.5 ± 1.2 kg/m3, the mass density (523.7 kPa) was 1004.3 ± 1.2 kg/m3 and the mass density (527.3 kPa) was 1004.5 ± 1.2 kg/m3. It also gave a mass density (531.3 kPa) of 1004.4 ± 1.2 kg/m3, a mass density (535.3 kPa) of 1004.4 ± 1.2 kg/m3 and a mass density (540.3 kPa) of 1004.4 ± 1.2 kg/m3. The mass density (544 kPa) was 1004.4 ± 1.2 kg/m3, the mass density (548.5 kPa) was 1004.5 ± 1.2 kg/m3 and the mass density (553 kPa) was 1004.5 ± 1.2 kg/m3. For the same compound, the mass density (557 kPa) was 1004.5 ± 1.2 kg/m3, the mass density (561.4 kPa) was 1004.4 ± 1.2 kg/m3 and the mass density (566.4 kPa) was 1004.3 ± 1.2 kg/m3. For the same compound, the mass density (571.4 kPa) was 1004.5 ± 1.2 kg/m3, the mass density (576.3 kPa) was 1004.4 ± 1.2 kg/m3 and the mass density (580.5 kPa) was 1004.5 ± 1.2 kg/m3. The mass density (585.3 kPa) was 1004.4 ± 1.2 kg/m3, the mass density (590.2 kPa) was 1004.5 ± 1.2 kg/m3 and the mass density (595.8 kPa) was 1004.5 ± 1.2 kg/m3. The mass density (600.1 kPa) was 1004.5 ± 1.2 kg/m3, the mass density (604.8 kPa) was 1004.6 ± 1.2 kg/m3 and the mass density (611.2 kPa) was 1004.5 ± 1.2 kg/m3. For the same compound, the mass density (616.8 kPa) was 1004.5 ± 1.2 kg/m3, the mass density (621.8 kPa) was 1004.6 ± 1.2 kg/m3 and the mass density (627.7 kPa) was 1004.6 ± 1.2 kg/m3. The mass density (633.3 kPa) was 1004.5 ± 1.2 kg/m3, the mass density (638.7 kPa) was 1004.5 ± 1.2 kg/m3 and the mass density (644.2 kPa) was 1004.5 ± 1.2 kg/m3. For the same compound, the mass density (650.7 kPa) was 1004.4 ± 1.2 kg/m3, the mass density (657.1 kPa) was 1004.4 ± 1.2 kg/m3 and the mass density (676 kPa) was 1004.5 ± 1.2 kg/m3. The mass density (681.9 kPa) was 1004.5 ± 1.2 kg/m3, the mass density (688 kPa) was 1004.5 ± 1.2 kg/m3 and the mass density (694.4 kPa) was 1004.5 ± 1.2 kg/m3. For the same compound, the mass density (700.5 kPa) was 1004.5 ± 1.2 kg/m3, the mass density (707.3 kPa) was 1004.7 ± 1.2 kg/m3 and the mass density (714.2 kPa) was 1004.5 ± 1.2 kg/m3. It also gave a mass density (720.3 kPa) of 1004.5 ± 1.2 kg/m3, a mass density (728 kPa) of 1004.5 ± 1.2 kg/m3 and a mass density (734.6 kPa) of 1004.6 ± 1.2 kg/m3. It also gave a mass density (742.2 kPa) of 1004.6 ± 1.2 kg/m3, a mass density (749.5 kPa) of 1004.6 ± 1.2 kg/m3 and a mass density (756.6 kPa) of 1004.6 ± 1.2 kg/m3. The mass density (763.9 kPa) was 1004.6 ± 1.2 kg/m3, the mass density (771.1 kPa) was 1004.5 ± 1.2 kg/m3 and the mass density (780.4 kPa) was 1004.7 ± 1.2 kg/m3. For the same compound, the mass density (787.7 kPa) was 1004.6 ± 1.2 kg/m3, the mass density (796.1 kPa) was 1004.5 ± 1.2 kg/m3 and the mass density (803.7 kPa) was 1004.6 ± 1.2 kg/m3. The mass density (821.4 kPa) was 1004.6 ± 1.2 kg/m3, the mass density (829.9 kPa) was 1004.6 ± 1.2 kg/m3 and the mass density (840 kPa) was 1004.6 ± 1.2 kg/m3. The mass density (848.9 kPa) was 1004.6 ± 1.2 kg/m3, the mass density (857.7 kPa) was 1004.6 ± 1.2 kg/m3 and the mass density (866.4 kPa) was 1004.7 ± 1.2 kg/m3. For the same compound, the mass density (877.2 kPa) was 1004.7 ± 1.2 kg/m3, the mass density (886.2 kPa) was 1004.6 ± 1.2 kg/m3 and the mass density (895.6 kPa) was 1004.7 ± 1.2 kg/m3. It also gave a mass density (905.1 kPa) of 1004.6 ± 1.2 kg/m3, a mass density (916.6 kPa) of 1004.8 ± 1.2 kg/m3 and a mass density (926.7 kPa) of 1004.6 ± 1.2 kg/m3. It also gave a mass density (936.4 kPa) of 1004.6 ± 1.2 kg/m3, a mass density (948.2 kPa) of 1004.6 ± 1.2 kg/m3 and a mass density (958.6 kPa) of 1004.7 ± 1.2 kg/m3. The mass density (969.1 kPa) was 1004.8 ± 1.2 kg/m3, the mass density (979.3 kPa) was 1004.6 ± 1.2 kg/m3 and the mass density (989.7 kPa) was 1004.8 ± 1.2 kg/m3. It also gave a mass density (1001.9 kPa) of 1004.8 ± 1.2 kg/m3, a mass density (1012 kPa) of 1004.7 ± 1.2 kg/m3 and a mass density (1024.5 kPa) of 1004.7 ± 1.2 kg/m3. It also gave a mass density (1035.1 kPa) of 1004.8 ± 1.2 kg/m3, a mass density (1045.3 kPa) of 1004.6 ± 1.2 kg/m3 and a mass density (1055.6 kPa) of 1004.8 ± 1.2 kg/m3. For the same compound, the mass density (1066.1 kPa) was 1004.7 ± 1.2 kg/m3, the mass density (1078.8 kPa) was 1004.6 ± 1.2 kg/m3 and the mass density (1089.1 kPa) was 1004.8 ± 1.2 kg/m3. The mass density (1099.8 kPa) was 1004.8 ± 1.2 kg/m3, the mass density (1113 kPa) was 1004.8 ± 1.2 kg/m3 and the mass density (1123.6 kPa) was 1004.9 ± 1.2 kg/m3. The mass density (1134.7 kPa) was 1004.8 ± 1.2 kg/m3, the mass density (1147.6 kPa) was 1004.7 ± 1.2 kg/m3 and the mass density (1158.7 kPa) was 1004.7 ± 1.2 kg/m3. The mass density (1170 kPa) was 1004.8 ± 1.2 kg/m3, the mass density (1183.6 kPa) was 1004.9 ± 1.2 kg/m3 and the mass density (1194.7 kPa) was 1004.7 ± 1.2 kg/m3. For the same compound, the mass density (1206.3 kPa) was 1004.9 ± 1.2 kg/m3, the mass density (1218.1 kPa) was 1004.8 ± 1.2 kg/m3 and the mass density (1229.9 kPa) was 1004.9 ± 1.2 kg/m3. It also gave a mass density (1241.6 kPa) of 1004.9 ± 1.2 kg/m3, a mass density (1258.7 kPa) of 1005 ± 1.2 kg/m3 and a mass density (1270.9 kPa) of 1004.9 ± 1.2 kg/m3. The mass density (1283.6 kPa) was 1004.8 ± 1.2 kg/m3, the mass density (1298.2 kPa) was 1004.8 ± 1.2 kg/m3 and the mass density (1310.3 kPa) was 1004.8 ± 1.2 kg/m3. For the same compound, the mass density (1322.8 kPa) was 1004.8 ± 1.2 kg/m3, the mass density (1338.1 kPa) was 1004.9 ± 1.2 kg/m3 and the mass density (1351.5 kPa) was 1004.8 ± 1.2 kg/m3. The mass density (1364.1 kPa) was 1004.9 ± 1.2 kg/m3, the mass density (1377 kPa) was 1004.9 ± 1.2 kg/m3 and the mass density (1393.1 kPa) was 1004.8 ± 1.2 kg/m3. The mass density (1406.3 kPa) was 1005 ± 1.2 kg/m3, the mass density (1420 kPa) was 1004.9 ± 1.2 kg/m3 and the mass density (1433.4 kPa) was 1005 ± 1.2 kg/m3. The mass density (1449.5 kPa) was 1005 ± 1.2 kg/m3, the mass density (1462.7 kPa) was 1005 ± 1.2 kg/m3 and the mass density (1476.5 kPa) was 1004.8 ± 1.2 kg/m3. It also gave a mass density (1492.4 kPa) of 1005 ± 1.2 kg/m3.
